Data taken from publication PMC9399411, “Identification of solamargine as a cisplatin sensitizer through phenotypical screening in cisplatin-resistant NSCLC organoids” (Frontiers in Pharmacology, 2022).

Experiments:
[1] = target: T1, SMO (smoothened) (Homo sapiens, UniProt Q99835); assay: BODIPY-cyclopamine competitive displacement on fixed U2OS-Smo cells (fluorescence imaging), […] solamargine; format: cell-based
T1 construct: human Smo protein stably overexpressed in U2OS cells

[2] = target: T1, SMO (smoothened); assay: BODIPY-cyclopamine competitive displacement on fixed U2OS-Smo cells (fluorescence imaging), […] vismodegib; format: cell-based

T1 sequence (Q99835 28-787): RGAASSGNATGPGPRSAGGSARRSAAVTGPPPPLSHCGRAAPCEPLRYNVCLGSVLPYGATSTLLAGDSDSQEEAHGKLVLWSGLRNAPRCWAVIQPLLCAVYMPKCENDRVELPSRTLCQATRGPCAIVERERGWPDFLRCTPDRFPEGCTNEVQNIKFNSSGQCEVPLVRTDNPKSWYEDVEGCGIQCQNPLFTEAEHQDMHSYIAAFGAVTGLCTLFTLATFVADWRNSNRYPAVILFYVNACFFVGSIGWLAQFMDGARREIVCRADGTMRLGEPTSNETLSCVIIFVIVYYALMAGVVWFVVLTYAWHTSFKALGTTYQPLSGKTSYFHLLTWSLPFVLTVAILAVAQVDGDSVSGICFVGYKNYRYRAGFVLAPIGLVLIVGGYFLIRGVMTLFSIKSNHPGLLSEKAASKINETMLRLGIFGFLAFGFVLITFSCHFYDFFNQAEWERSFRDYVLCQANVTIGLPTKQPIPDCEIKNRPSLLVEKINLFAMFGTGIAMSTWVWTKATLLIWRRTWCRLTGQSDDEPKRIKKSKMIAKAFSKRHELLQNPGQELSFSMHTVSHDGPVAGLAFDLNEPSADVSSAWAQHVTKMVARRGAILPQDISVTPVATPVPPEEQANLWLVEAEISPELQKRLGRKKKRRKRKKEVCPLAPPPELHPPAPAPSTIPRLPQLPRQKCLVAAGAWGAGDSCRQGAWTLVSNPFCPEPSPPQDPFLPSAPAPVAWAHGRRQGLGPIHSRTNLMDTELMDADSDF

Compound | BODIPY-cyclopamine competitive displacement on fixed U2OS-Smo cells (fluorescenc) [1] | BODIPY-cyclopamine competitive displacement on fixed U2OS-Smo cells (fluorescenc) [2]
C[C@@H]1CC[C@@]2(NC1)O[C@H]1C[C@H]3[C@@H]4CC=C5C[C@@H](O[C@@H]6O[C@H](CO)[C@@H](O[C@@H]7O[C@@H](C)[C@H](O)[C@@H](O)[C@H]7O)[C@H](O)[C@H]6O[C@@H]6O[C@@H](C)[C@H](O)[C@@H](O)[C@H]6O)CC[C@]5(C)[C@H]4CC[C@]3(C)[C@H]1[C@@H]2C [Solamargine] | fluorescent signaling of BODIPY-cyclopamine wasalso suppressed by Solamargine (Figure 4C), suggesting the inhibitory binding of Solamargine to SMO | 
CS(=O)(=O)c1ccc(C(=O)Nc2ccc(Cl)c(-c3ccccn3)c2)c(Cl)c1 [vismodegib] |  | vismodegib can directly bind to SMO and competitively remove BODIPY-cyclopamine from SMO
